Assay results taken from patent US11241398B2, “Affinity medicant conjugate” (Califia Pharma Inc., priority 2014, dated 2022).
Marks after values point to notes of the source that are not given here.

Columns and labels:
[1] = tested on: MV522 cell line; assay: two hour toxicity: inhibition of 50% of DNA synthesis activity, target cell line; conditions: for cytotoxicity (in words): see Table XV; for IC50: read-out: Mean IC50 value, MV522 Target Cell Line, 2 hr exposure, MV522 target cell line, 2 hr exposure, mean ± SD, N = 3 unless otherwise indicated
Experimental: (§1) The MV522 cell line is a lung-derived adenocarcinoma cell line. In various embodiments of the invention, the MV522 cell line represents a “target” cell line. […] The two hour toxicity data represents the concentration of a given analog for which a two hour exposure will inhibit 50% of the DNA synthesis activity in a given cell line. The 48 hour exposure data represents the concentration at which a given analog with a 48 hour exposure will inhibit the growth or viability in a given cell line as defined by the standard Trypan Blue Exclusion assay.

[2] = tested on: 8392B cell line; assay: two hour toxicity: inhibition of 50% of DNA synthesis activity, nontarget cell line; format: cell-based; conditions: read-out: Mean IC50 value, 8392B Nontarget Cell Line, 2 hr exposure, mean ± SD, N = 3 unless otherwise indicated
Experimental: as §1

[3] = tested on: 8392B cell line; assay: 48 hour exposure, growth or viability by Trypan Blue Exclusion assay, nontarget cell line; format: cell-based; conditions: read-out: Mean IC50 value, 8392B Nontarget Cell Line, 48 hr exposure; 8392B nontarget cell line; 48 hr exposure; mean ± SD, N = 3 unless otherwise indicated
Experimental: as §1

[4] = tested on: MV522 cell line; assay: 48 hour exposure, growth or viability by Trypan Blue Exclusion assay, target cell line; format: cell-based; conditions: read-out: Mean IC50 value, MV522 Target Cell Line, 48 hr exposure, mean ± SD, N = 3 unless otherwise indicated
Experimental: as §1

[5] = tested on: MCF7 (ER positive); assay: cytotoxic data IC50, 2 hour exposure, cells expressing the estrogen receptor; format: cell-based; conditions: for preferential killing of MCF7 (ER positive) versus ER negative cells: Table VII
From the text: (§2) MCF7 over express estrogen alpha-receptors.
(§3) MCF7 cells over express estrogen alpha-receptors.

[6] = tested on: HT29 (ER Negative); assay: cytotoxic data IC50, 2 hour exposure, cells not expressing the estrogen receptor; format: cell-based; conditions: N = 3, mean ± SD
From the text: as §2, §3

[7] = tested on: NCI-DTP 60 cell line panel; conditions: NCI DTP 60 cell line mean, cited from earlier work
[8] = tested on: Prostate LnCAP (positive PSA); assay: activity of PSA cleavable analogs, 48 hour exposure, PSA positive cell line; format: cell-based; conditions: N = 3, mean ± SD

Row | Structure (SMILES) | IC50 [2] [µM] | IC50 [3] [µM] | IC50 [1] [µM] | IC50 [4] [µM] | other results
1 | CC1=C(COC(=O)CCCCCN2C(=O)C=CC2=O)C2=C(C)C3(CC3)[C@@](C)(O)C(=O)C2=C1 [Analog 217] | – | – | – | – | cytotoxicity (in words) [1]: cytotoxic with nM activity
2 | CC1=C2C(=CC(C)(CO[Si](C)(C)C(C)(C)C)C2N)C(=O)C(C)(O)C12CC2 (stereo not shown) [Analog 205] | > 185 | > 2.6 | 8.4 ± 2.2 | – | –
3 | CC1=CC2C(=C(C)C3(CC3)C(C)(O)C2O)C1=O (stereo not shown) [Analog 186] | – | – | 144 ± 32 | 70 ± 16 | –
4 | CC1=C(CCC(=O)Oc2ccc3c(c2)CC[C@@H]2[C@@H]3CC[C@]3(C)C(=O)CC[C@@H]23)C2=C(C)C3(CC3)[C@@](C)(O)C(=O)C2=C1 [Analog 110] | > 55 | 25.3 ± 2.1 | > 55 | – | preferential killing of MCF7 (ER positive) versus ER negative cells [5]: preferentially killed; IC50 [6]: > 19 µM
5 | CC[C@H](C)[C@@H]([C@@H](CC(=O)N1CCC[C@H]1[C@H](OC)[C@@H](C)C(=O)NCCc1ccccc1)OC)N(C)C(=O)[C@@H](NC(=O)[C@H](C(C)C)N(C)C)C(C)C [Auristatins] | – | – | – | – | Mean LD50 cytotoxic [7]: >5,000 nM; Mean TGI cytostatic [7]: 902** nM; GI50 ([7]; read-out: Mean GI50 inhibition): 0.0014 µM
6 | CC1=C(CCC(=O)Oc2ccc3c(c2)CCC2C3CCC3(C)C(O)CCC23)C2=C(C)C3(CC3)C(C)(O)C(=O)C2=C1 (stereo not shown) [Analog 108] | > 55 | – | 12.3 ± 2.3 | 0.52 ± 0.05 | IC50 ([5]; N = 3, mean ± SD): 14.1 ± 2.8 µM; IC50 [6]: > 55 µM
7 | CC1=C2C(=CC(C)(C)[C@@H]2OC(=O)CCCCCN2C(=O)C=CC2=O)C(=O)[C@](C)(O)C12CC2 [Analog 218] | – | 0.6 ± 0.1 | – | 0.6 ± 0.2 | cytotoxicity (in words) [1]: cytotoxic with nM activity
8 | CC1=C(CCCNC(=O)OCC2=C(C(=O)O)N3C(=O)C(NC(=O)Cc4cccs4)C3S(=O)(=O)C2)C2=C(C)C3(CC3)C(C)(O)C(=O)C2=C1 (stereo not shown) [Analog 274] | > 46 | > 4.5 | – | – | –
9 | CC1=C2[C@@H](O)C(C)(C)[C@H]3C[C@@]23C(=O)[C@](C)(O)C12CC2 [Analog 252] | > 380 | > 380 | > 380 | – | –
10 | CC1=CC2=C(C)C3(CC3)C(C)(O)C(=NO)C2=C1 (stereo not shown) [Analog 224] | – | – | – | – | differential toxicity between the target and nontarget cell line ([1]; MV522 versus 8392B): no differential toxicity; toxicity (in words) ([1]; target and nontarget cell line): minimal toxicity
11 | COC(=O)C1=C(C(=O)OC)C23C=C(C)C1C2=C(C)C1(CC1)C(C)(O)C3=O (stereo not shown) [Analog 142] | – | – | – | 0.024 ± 0.007 | –
12 | CC1=C2C(=CC(C)(COC(=O)c3cc([N+](=O)[O-])cc([N+](=O)[O-])c3)C2OC(=O)CCCC(=O)O)C(=O)C(C)(O)C12CC2 (stereo not shown) [Analog 118] | 24.5 ± 4.5 | – | – | – | –
13 | CC(=O)ON(C(C)=O)c1ccc(C(=O)OCC2(C)C=C3C(=O)C(C)(O)C4(CC4)C(C)=C3C2O)cc1 (stereo not shown) [Analog 136] | > 6.2 | – | – | – | –
14 | CC1=C2C(=C[C@@](C)(CO[Si](C)(C)C(C)(C)C)[C@@H]2OC(=O)[C@@H]2CCCN2C(=O)[C@H](CO)NC(=O)[C@@H](N)CO)C(=O)[C@](C)(O)C12CC2 [Analog 214] | – | – | – | – | IC50 [8]: 0.19 ± 0.03 µM
15 | CC1=C(CCCN2C(=O)C=CC2=O)C2=C(C)C3(CC3)[C@@](C)(O)C(=O)C2=C1 [Analog 190] | – | – | – | – | cytotoxicity (in words) [1]: cytotoxic with nM activity
16 | COC(=O)C1=C(C(=O)OC)C23C=C(C)C1C2=C(C)C1(CC1)C(C)(O)C3O (stereo not shown) [Analog 141] | 13.7 ± 1.9 | – | – | 3.7 ± 0.8 | –
17 | CC1=C(CSC[C@@H](C)C(=O)N2CCCC2C(=O)O)C2=C(C)C3(CC3)[C@@](C)(O)C(=O)C2=C1 (stereo partly shown) [Analog 098] | > 65 | 11.7 ± 1.8 | 18.8 ± 2.5 | 4.6 ± 0.25 | –
18 | CC1=C2C(=CC(C)(C)[C@@H]2OC(=O)c2ccc(S(=O)(=O)F)cc2)C(=O)[C@](C)(O)C12CC2 [Analog 222] | 9.3 | – | – | – | –
19 | CC1=C2C(=CC(C)(C)[C@@H]2O)C(=O)[C@](C)(O)C12CC2 [Illudin M, reference compound] | – | – | – | – | Mean LD50 cytotoxic [7]: 912 nM; preferential killing of MCF7 (ER positive) versus ER negative cells [5]: to the same extent
20 | CC(=O)OCC1=C(CO)C=C2C(=O)C(C)(OC(C)=O)C3(CC3)C(C)=C21 (stereo not shown) [Analog 103] | 12.1 ± 2 | – | 31.8 ± 4.9 | 5.9 ± 0.4 | –
